Laboratory results as given in PubChem BioAssay (NCI).
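Tested at 5 concentrations; 48 h exposure; 96-well plates; endpoints linearly interpolated, else capped at highest concentration. GI50 marks 50% less growth. TGI is the concentration that stops growth completely.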

What was measured:
Assay in all cases: NCI tumour cell line growth inhibition, 48 h
OVCAR-8 ovarian = tested on: OVCAR-8 ovarian
SNB-19 CNS = tested on: SNB-19 CNS
EKVX NSCLC = tested on: EKVX NSCLC
LOX IMVI melanoma = tested on: LOX IMVI melanoma
NCI-H460 lung = tested on: NCI-H460 lung
UACC-257 melanoma = tested on: UACC-257 melanoma
SK-OV-3 ovarian = tested on: SK-OV-3 ovarian
HOP-92 NSCLC = tested on: HOP-92 NSCLC
NCI/ADR-RES ovarian = tested on: NCI/ADR-RES ovarian
MDA-MB-435 = tested on: MDA-MB-435

Compound | TGI (OVCAR-8 ovarian) [µM] | TGI (SNB-19 CNS) [µM] | TGI (EKVX NSCLC) [µM] | TGI (LOX IMVI melanoma) [µM] | TGI (NCI-H460 lung) [µM] | TGI (UACC-257 melanoma) [µM] | TGI (SK-OV-3 ovarian) [µM] | TGI (HOP-92 NSCLC) [µM] | TGI (NCI/ADR-RES ovarian) [µM] | TGI (MDA-MB-435) [µM] | GI50 (OVCAR-8 ovarian) [µM] | GI50 (NCI/ADR-RES ovarian) [µM] | GI50 (SNB-19 CNS) [µM] | GI50 (SK-OV-3 ovarian) [µM] | GI50 (EKVX NSCLC) [µM] | GI50 (LOX IMVI melanoma) [µM] | GI50 (NCI-H460 lung) [µM] | GI50 (HOP-92 NSCLC) [µM]
O=[N+]([O-])C(=C1c2ccccc2-c2ccccc21)[N+](=O)[O-] | > 100 | > 100 | > 100 | > 100 | > 100 | > 100 | – | – | – | – | – | – | – | – | – | – | – | –
Nc1ncnc2c1ncn2C1(CO)OC(CO)C(O)C1O (centres undefined) | – | > 100 | – | > 100 | > 100 | > 100 | > 100 | > 100 | – | – | – | – | – | – | – | – | – | –
CN1C=C(C(N)=O)Cc2ccsc21 | > 100 | > 100 | > 100 | – | > 100 | > 100 | > 100 | > 100 | – | – | – | – | – | – | – | – | – | –
CCCCCCCCCCCCNC(=S)OCCCC | > 100 | > 100 | > 100 | 35.8 | > 100 | > 100 | > 100 | > 100 | – | – | – | – | – | – | – | – | – | –
O=c1oc2cc(O)ccc2cc1-c1nc2ccccc2o1 | > 100 | > 100 | > 100 | > 100 | > 100 | > 100 | – | 78.3 | > 100 | > 100 | – | – | – | – | – | – | – | –
Cc1ccc(C)c(NC(=O)C(=O)C(C2C(C)CC(=O)C2CC(=O)O)[N+](=O)[O-])c1 (centres undefined) | – | > 100 | > 100 | > 100 | > 100 | > 100 | > 100 | > 100 | – | – | – | – | – | – | – | – | – | –
O=C(OCc1ccccc1)N1N=NC2C3CC(OCc4ccccc4)(OCc4ccccc4)C(O3)C21 (centres undefined) | – | – | – | 42.8 | > 100 | 41.4 | > 100 | 43.9 | – | – | – | – | – | – | – | – | – | –
COc1ccc(/C(=N/O)c2cc(F)c(F)c(OC)c2F)cc1O | > 100 | > 100 | > 100 | > 100 | > 100 | – | > 100 | > 100 | 19.1 | – | 3.1 | 0.309 | 0.827 | 0.523 | 0.714 | 0.605 | 0.402 | 18.9
CC1Nc2ccccc2NC1C=C(C#N)C#N (centres undefined) | 23.1 | 36.3 | 37.1 | 25.5 | 42.5 | – | 52.6 | 28.4 | – | – | – | – | – | – | – | – | – | –
Cc1ncc2c(n1)CCC1=C2OS(=O)(=O)CC1N(C)C (centres undefined) | > 100 | > 100 | > 100 | > 100 | > 100 | > 100 | > 100 | – | – | > 100 | – | – | – | – | – | – | – | –
